From US20130210039A1, “BLOOD INSULIN RESISTANCE AND DIABETES MARKER PROGRANULIN, METHOD FOR ANALYZING CONCENTRATION OF PROGRANULIN IN BLOOD SAMPLE, AND METHOD FOR SCREENING FOR SUBSTANCE THAT IMPROVES INSULIN RESISTANCE AND IMPROVES OR SUPPRESSES DIABETES” (priority 2010, published 2013)

How the values were obtained:
cultured adipocytes = cultured adipocytes treated with the substance alone; cited from earlier work
progranulin (PGRN) = experiment: Serum progranulin concentration in ob/ob mice orally administered pioglitazone (ELISA); assay type: in vivo; settings: ten-week-old ob/ob mice, 30 mg/kg orally every day for 1 week; mean±S.D., n=5; p<0.05 vs Vehicle (2.57±0.28)
Experimental: Blood samples were collected from seven-week-old ob/ob mice and ob/+ mice, allowed to stand at room temperature, and centrifuged to prepare serum samples. Serum progranulin concentrations were measured by ELISA.
(§1) Ten-week-old ob/ob mice were orally administered with 30 mg/kg of a thiazolidine derivative (pioglitazone) every day for 1 week. An oral glucose tolerance test (OGTT) was performed on these mice and a control group (Vehicle) administered with only a solvent (10% (w/v) carboxymethyl cellulose).
In FIG. 9, the horizontal axis represents the type of group to be measured (pioglitazone administration group (Pio), control group (Vehicle), and ob/+ mice) and the vertical axis represents the serum progranulin concentration (Serum PGRN conc.) (μg/mL).

progranulin (PGRN) mRNA = experiment: Progranulin mRNA expression in adipose tissues of ob/ob mice orally administered pioglitazone; assay type: in vivo; settings: ten-week-old ob/ob mice, 30 mg/kg orally every day for 1 week, mean±S.D.
Experimental: Adipose tissues (mesenteric fat tissue (MF), epididymal fat tissue (EF), and subcutaneous adipose tissue (SC)) were extracted from seven-week-old ob/ob mice and ob/+ mice and subjected to real-time PCR analysis to determine the expression levels of mRNA for progranulin (PGRN).
as §1
In FIG. 8, the horizontal axis represents the type of adipose tissue (epididymal fat tissue (EF), mesenteric fat tissue (MF), subcutaneous adipose tissue (SC) (white adipose tissue (WAT) and brown adipose tissue (BAT)), the vertical axis represents the relative expression level of progranulin mRNA (relative PRGN mRNA expression), “Vehicle” represents the control group, and “Pio” represents the pioglitazone administration group.

Akt protein = settings: cultured adipose cells treated with progranulin protein, under insulin stimulation; cited from earlier work

For TNF-α, which “expression level of progranulin” value (cultured adipocytes) is on record?
Its value is “increased”.

Which serum progranulin concentration (progranulin (PGRN)) does the source give for CCc1ccc(CCOc2ccc(CC3SC(=O)NC3=O)cc2)nc1 (stereo not drawn) [pioglitazone] here?
Its serum progranulin concentration is 1.86 ± 0.10 µg/mL.

What about the “expression level of mRNA for progranulin in mesenteric fat tissue (MF)” value (progranulin (PGRN) mRNA; p<0.01 vs Vehicle) of the same molecule?
The value was 0.42±0.11 times that of the control group.

And the “expression level of mRNA for progranulin in epididymal fat tissue (EF)” value (progranulin (PGRN) mRNA; p<0.05 vs Vehicle)?
The value was 0.74±0.06 times that of the control group.

And the “expression level of mRNA for progranulin in subcutaneous adipose tissue (SC) (white adipose tissue (WAT))” value (progranulin (PGRN) mRNA; p<0.05 vs Vehicle)?
Its value is 0.61±0.07 times that of the control group.

B1: progranulin protein: granulin precursor protein having seven kinds of granulin domains; insulin resistance marker (protein)
chain: MWTLVSWVALTAGLVAGTRCPDGQFCPVACCLDPGGASYSCCRPLLDKWPTTLSRHLGGPCQVDAHCSAGHSCIFTVSGTSSCCPFPEAVACGDGHHCCPRGFHCSADGRSCFQRSGNNSVGAIQCPDSQFECPDFSTCCVMVDGSWGCCPMPQASCCEDRVHCCPHGAFCDLVHTRCITPTGTHPLAKKLPAQRTNRAVALSSSVMCPDARSRCPDGSTCCELPSGKYGCCPMPNATCCSDHLHCCPQDTVCDLIQSKCLSKENATTDLLTKLPAHTVGDVKCDMEVSCPDGYTCCRLQSGAWGCCPFTQAVCCEDHIHCCPAGFTCDTQKGTCEQGPHQVPWMEKAPAHLSLPDPQALKRDVPCDNVSSCPSSDTCCQLTSGEWGCCPIPEAVCCSDHQHCCPQGYTCVAEGQCQRGSEIVAGLEKMPARRASLSHPRDIGCDQHTSCPVGQTCCPSLGGSWACCQLPHAVCCEDRQHCCPAGYTCNVKARSCEKEVVSAQPATFLARSPHVGVKDVECGEGHFCHDNQTCCRDNRQGWACCPYRQGVCCADRRHCCPAGFRCAARGTKCLRREAPRWDAPLRDPALRQLL
modifications: human
notes: granulin precursor protein having seven kinds of granulin domains; insulin resistance marker
For B1, which “activity of Akt protein activated downstream of an insulin receptor” value (Akt protein) is on record?
Its value is “significantly suppressed”.
